This test addresses T1, TYK2 (Homo sapiens, UniProt P29597).
T1 construct: Degradation of TYK2 in cells was quantitatively measured using Meso Scale Discovery (MSD) technology; endogenous in cells; host or cells: OCI-LY10
Description: TYK2 MSD degradation in OCI-LY10 cells. In kind it is cell-based. Conditions: TYK2 degradation in OCI-LY10 cells, 4 to 24 hours incubation; for DC50: read-out: TYK2 MSD OCI-LY10 Rel-DC50. Put shortly: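 OCI-LY10 cells were treated with 9-dose 1:3 series (top 1 to 10 μM final) for 4 to 24 hours at 37° C. Lysate TYK2 quantified by MSD sandwich immunoassay; DC50 and Dmax from four-parameter inhibitor vs. response fit.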

T1 sequence (P29597 whole entry): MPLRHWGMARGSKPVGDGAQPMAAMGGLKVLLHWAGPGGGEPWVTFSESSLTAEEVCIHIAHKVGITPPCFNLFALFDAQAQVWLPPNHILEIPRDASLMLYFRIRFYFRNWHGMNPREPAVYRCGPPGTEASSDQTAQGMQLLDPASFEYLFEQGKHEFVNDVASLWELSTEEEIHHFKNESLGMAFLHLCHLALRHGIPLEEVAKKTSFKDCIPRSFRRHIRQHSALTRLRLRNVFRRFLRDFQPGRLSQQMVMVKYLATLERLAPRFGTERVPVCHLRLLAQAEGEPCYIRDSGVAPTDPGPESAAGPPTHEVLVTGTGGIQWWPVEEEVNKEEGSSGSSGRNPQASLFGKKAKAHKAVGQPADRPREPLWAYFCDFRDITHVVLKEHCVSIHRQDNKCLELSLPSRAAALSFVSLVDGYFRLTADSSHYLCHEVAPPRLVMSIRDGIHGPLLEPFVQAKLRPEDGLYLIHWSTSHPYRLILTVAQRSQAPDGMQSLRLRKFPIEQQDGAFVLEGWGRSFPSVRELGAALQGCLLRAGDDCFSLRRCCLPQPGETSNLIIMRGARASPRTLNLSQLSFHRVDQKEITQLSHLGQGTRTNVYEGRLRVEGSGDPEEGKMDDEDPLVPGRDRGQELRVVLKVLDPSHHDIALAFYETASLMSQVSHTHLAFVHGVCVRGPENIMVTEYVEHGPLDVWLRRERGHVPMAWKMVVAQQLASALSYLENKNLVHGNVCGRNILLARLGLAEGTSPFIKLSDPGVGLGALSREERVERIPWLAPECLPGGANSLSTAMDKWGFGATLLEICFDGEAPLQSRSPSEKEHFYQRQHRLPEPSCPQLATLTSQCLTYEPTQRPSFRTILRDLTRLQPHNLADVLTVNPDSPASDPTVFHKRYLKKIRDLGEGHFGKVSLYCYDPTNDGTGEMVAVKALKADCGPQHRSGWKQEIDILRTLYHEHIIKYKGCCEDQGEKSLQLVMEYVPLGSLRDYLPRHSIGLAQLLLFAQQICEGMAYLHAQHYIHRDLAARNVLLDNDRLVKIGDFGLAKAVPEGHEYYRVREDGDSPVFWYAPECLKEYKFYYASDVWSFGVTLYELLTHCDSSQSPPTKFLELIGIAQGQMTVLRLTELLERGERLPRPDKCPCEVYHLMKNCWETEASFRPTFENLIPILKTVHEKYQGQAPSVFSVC

Regarding `CNc1cc(N2CCc3c(CN4CCC(N5CCC6(CCN(C(=O)c7cc(N8CCC(=O)NC8=O)c(C)cc7F)CC6)CC5)C(F)(F)C4)cccc32)nn2c(C(=O)N[C@@H]3C[C@@H]3F)cnc12` (some centres unmarked) [I-853], the “TYK2 MSD OCI-LY10 Dmax %” value was “A (A (>90%))” and the DC50 is less than 0.001 µM.
For the molecule `CNc1cc(N2CCc3c(C#CCN4CCC(N5CCN(C(=O)c6ccc(Cl)c(N7CCC(=O)NC7=O)c6)CC5)C(F)(F)C4)cccc32)nn2c(C(=O)NC3CC3F)cnc12` (centres unmarked) [I-854], the “TYK2 MSD OCI-LY10 Dmax %” value is reported as “A (A (>90%))” and the half-maximal degradation concentration (DC50) was less than 0.001 µM.
Consider `CNc1cc(N2CCc3c(CN4CCC(N5CCC6(CC5)CN(C(=O)c5ccc(Cl)c(N7CCC(=O)NC7=O)c5)C6)C(F)(F)C4)cccc32)nn2c(C(=O)N[C@@H]3C[C@@H]3F)cnc12` (some centres unmarked) [I-855], for which the “TYK2 MSD OCI-LY10 Dmax %” value is “A (A (>90%))” and the half-maximal degradation concentration (DC50) was less than 0.001 µM.
Turning to `CNc1cc(N2CCc3c(-c4ccc(CN5CC6(CCN(C(=O)c7ccc(Cl)c(N8CCC(=O)NC8=O)c7)CC6(F)F)C5)cn4)cc(C(F)(F)F)cc32)nn2c(C(=O)N[C@@H]3C[C@@H]3F)cnc12` [I-856], the “TYK2 MSD OCI-LY10 Dmax %” value was “C (C (75 to 50%))” and the DC50 is 0.01 to 0.1 µM.
As to `CNc1cc(N2CCc3c(CN4CCN(C5CCC6(CC5)CCN(C(=O)c5ccc(Cl)c(N7CCC(=O)NC7=O)c5)CC6)CC4)cccc32)nn2c(C(=O)N[C@@H]3C[C@@H]3F)cnc12` [I-857], the “TYK2 MSD OCI-LY10 Dmax %” value is listed as “A (A (>90%))” and the DC50 was less than 0.001 µM.
On to `COC1(c2cc(C)cc(-c3cn(C4CCN(CC5CCN(C(=O)c6ccc(Cl)c(N7CCC(=O)NC7=O)c6)CC5)CC4)c4cnc(NC(C)=O)cc34)n2)CCOC1` (centres unmarked) [I-858], for which the “TYK2 MSD OCI-LY10 Dmax %” value was “D (D (<50%))” and the DC50 was more than 0.1 µM.
In the case of `CNc1cc(N2CCc3c(-c4ccc(CN5CC6(CCN(C(=O)c7ccc(Cl)c(N8CCC(=O)NC8=O)c7)CC6(F)F)C5)cn4)cc(OC)cc32)nn2c(C(=O)N[C@@H]3C[C@@H]3F)cnc12` [I-859], the “TYK2 MSD OCI-LY10 Dmax %” value is recorded as “B (B (90 to >75%))” and the DC50 is less than 0.01 µM.
Consider `CNc1cc(N2CCc3c(-c4ccc(N5CCC6(CCN(Cc7ccc(N8CCC(=O)NC8=O)c(Cl)c7)CC6)CC5)cn4)cccc32)nn2c(C(=O)N[C@@H]3C[C@@H]3F)cnc12` [I-870], for which the “TYK2 MSD OCI-LY10 Dmax %” value was “C (C (75 to 50%))” and the 50% degradation concentration (DC50) was 0.01 to 0.1 µM.
Taken in the same sequence, the figures for `CNc1cc(-c2ccc(-c3ccc(CN4CC5(CCN(C(=O)c6ccc(Cl)c(N7CCC(=O)NC7=O)c6)CC5(F)F)C4)cn3)cc2)nn2c(C(=O)N[C@@H]3C[C@@H]3F)cnc12` [I-880] were “B (B (90 to >75%))” and less than 0.01 µM.
The matching figures for `CNc1cc(N2CCc3c(-c4ccc(N5CC6(CCN(Cc7ccc(N8CCC(=O)NC8=O)c(Cl)c7)CC6)C5)cn4)cccc32)nn2c(C(=O)N[C@@H]3C[C@@H]3F)cnc12` [I-881]: “B (B (90 to >75%))” and less than 0.01 µM.
The matching figures for `CNc1cc(-c2ccc(N3CCC(CN4CC5(CCN(C(=O)c6ccc(Cl)c(N7CCC(=O)NC7=O)c6)CC5(F)F)C4)CC3)cc2)nn2c(C(=O)N[C@@H]3C[C@@H]3F)cnc12` [I-882]: “D (D (<50%))” and more than 0.1 µM.
Turning to `CNc1cc(N2CCc3c(-c4ccc(CN5CC6(CCN(C(=O)c7ccc(Cl)c(N8CCC(=O)NC8=O)c7)CC6(F)F)C5)cn4)cccc32)nn2c(C(=O)N[C@H]3C[C@@H](F)C3)cnc12` [I-883], the “TYK2 MSD OCI-LY10 Dmax %” value is given as “A (A (>90%))” and the DC50 was less than 0.001 µM.
On to `CNc1cc(N2CCc3c(-c4ccc(CN5CC6(CCC(=Cc7ccc(Cl)c(N8CCC(=O)NC8=O)c7)CC6)C5)cn4)cccc32)nn2c(C(=O)N[C@@H]3C[C@@H]3F)cnc12` [I-884], for which the “TYK2 MSD OCI-LY10 Dmax %” value is “C (C (75 to 50%))” and the DC50 fell in the range of 0.01 to 0.1 µM.
Consider `CNc1cc(N2CCc3c(-c4ccc(N5CCC6(CCN(C(=O)c7ccc(N8CCC(=O)NC8=O)c(Cl)c7)CC6)CC5)cn4)cccc32)nn2c(C(=O)N[C@@H]3C[C@@H]3F)cnc12` [I-885], for which the “TYK2 MSD OCI-LY10 Dmax %” value is “C (C (75 to 50%))” and the DC50 fell in the range of 0.01 to 0.1 µM.
Turning to `CNc1cc(N2CCc3c(-c4ccc(CN5CC6(CCN(C(=O)c7ccc(Cl)c(N8CCC(=O)NC8=O)c7)CC6(F)F)C5)cn4)cccc32)nn2c(C(=O)N[C@H]3C[C@H](OC)C3)cnc12` [I-886], the “TYK2 MSD OCI-LY10 Dmax %” value is given as “B (B (90 to >75%))” and the 50% degradation concentration (DC50) is less than 0.01 µM.
Regarding `CNc1cc(N2CCc3c(N4CCN(CCC5CC6(CCN(C(=O)c7ccc(Cl)c(N8CCC(=O)NC8=O)c7)CC6)C5)CC4)cccc32)nn2c(C(=O)N[C@@H]3C[C@@H]3F)cnc12` [I-887], the “TYK2 MSD OCI-LY10 Dmax %” value is “B (B (90 to >75%))” and the DC50 is less than 0.01 µM.
Regarding `CNc1cc(N2CCc3c(-c4ccc(CN5CC6(CCN(C(=O)c7ccc(Cl)c(N8CCC(=O)NC8=O)c7)CC6(F)F)C5)cn4)cccc32)nn2c(C(=O)N[C@H]3C[C@H](C)C3)cnc12` [I-888], the “TYK2 MSD OCI-LY10 Dmax %” value was “B (B (90 to >75%))” and the DC50 is less than 0.01 µM.
For `CNc1cc(-c2ccc(N3CCN(CC4CC5(CCN(C(=O)c6ccc(Cl)c(N7CCC(=O)NC7=O)c6)CC5)C4)CC3)cc2)nn2c(C(=O)N[C@@H]3C[C@@H]3F)cnc12` [I-889], the “TYK2 MSD OCI-LY10 Dmax %” value was “D (D (<50%))” and the half-maximal degradation concentration (DC50) was more than 0.1 µM.
Take `CNc1cc(N2CCc3c(CN4CCC(N5CCN(C(=O)c6ccc(Cl)c(N7CCC(=O)NC7=O)c6)CC5)C(F)(F)C4)cccc32)nn2c(C(=O)N[C@@H]3C[C@@H]3F)cnc12` (some centres unmarked) [I-890]: the “TYK2 MSD OCI-LY10 Dmax %” value is “B (B (90 to >75%))” and the DC50 was less than 0.01 µM.
Take `CNc1cc(N2CCc3c(CN4CCC(CN5CCN(C(=O)c6ccc(Cl)c(N7CCC(=O)NC7=O)c6)CC5)CC4)cccc32)nn2c(C(=O)N[C@@H]3C[C@@H]3F)cnc12` [I-891]: the “TYK2 MSD OCI-LY10 Dmax %” value is “D (D (<50%))” and the DC50 was more than 0.1 µM.
As to `CNc1cc(N2CCc3c(-c4ccc(N5CC6(CCN(C(=O)c7ccc(N8CCC(=O)NC8=O)c(Cl)c7)CC6)C5)cn4)cccc32)nn2c(C(=O)N[C@@H]3C[C@@H]3F)cnc12` [I-892], the “TYK2 MSD OCI-LY10 Dmax %” value is listed as “B (B (90 to >75%))” and the DC50 is less than 0.01 µM.
Regarding `CNc1cc(N2CCc3c(CN4CCC(CN5CCC6(CC5)CN(C(=O)c5ccc(Cl)c(N7CCC(=O)NC7=O)c5)C6)CC4)cccc32)nn2c(C(=O)N[C@@H]3C[C@@H]3F)cnc12` [I-893], the “TYK2 MSD OCI-LY10 Dmax %” value is reported as “D (D (<50%))” and the half-maximal degradation concentration (DC50) was more than 0.1 µM.
`CNc1cc(N2CCc3c(CN4CCC(CN5CC6(CCN(C(=O)c7ccc(Cl)c(N8CCC(=O)NC8=O)c7)CC6)C5)CC4)cccc32)nn2c(C(=O)N[C@@H]3C[C@@H]3F)cnc12` [I-894]: the “TYK2 MSD OCI-LY10 Dmax %” value is “B (B (90 to >75%))” and the 50% degradation concentration (DC50) is less than 0.01 µM.
On to `CNc1cc(N2CCc3c(CCN4CCC5(CC4)CCN(C(=O)c4ccc(Cl)c(N6CCC(=O)NC6=O)c4)CC5)cccc32)nn2c(C(=O)N[C@@H]3C[C@@H]3F)cnc12` [I-895], for which the “TYK2 MSD OCI-LY10 Dmax %” value is on record as “D (D (<50%))” and the DC50 is more than 0.1 µM.
For `CNc1cc(N2CCc3c(-c4ccc(CN5CC6(CCN(C(=O)c7ccc(N8CCC(=O)NC8=O)c(Cl)c7)CC6)C5)cn4)cccc32)nn2c(C(=O)N[C@@H]3C[C@@H]3F)cnc12` [I-896], the “TYK2 MSD OCI-LY10 Dmax %” value is recorded as “D (D (<50%))” and the DC50 is more than 0.1 µM.
For the molecule `CNc1cc(N2CCc3c2cccc3C23CC(CN4CC5(CCN(C(=O)c6ccc(Cl)c(N7CCC(=O)NC7=O)c6)CC5(F)F)C4)(C2)C3)nn2c(C(=O)N[C@@H]3C[C@@H]3F)cnc12` [I-897], the “TYK2 MSD OCI-LY10 Dmax %” value is “B (B (90 to >75%))” and the DC50 is less than 0.01 µM.
As to `CNc1cc(N2CCc3c(-c4ccc(CN5CCC6(CC5)CC(Oc5ccc(N7CCC(=O)NC7=O)c(Cl)c5)C6)cn4)cccc32)nn2c(C(=O)N[C@@H]3C[C@@H]3F)cnc12` [I-898], the “TYK2 MSD OCI-LY10 Dmax %” value was “D (D (<50%))” and the DC50 was more than 0.1 µM.
As for `CNc1cc(N2CCc3c(N4CCC(CN5CC6(CCN(Cc7ccc(Cl)c(N8CCC(=O)NC8=O)c7)CC6(F)F)C5)CC4)cccc32)nn2c(C(=O)N[C@@H]3C[C@@H]3F)cnc12` [I-899], the “TYK2 MSD OCI-LY10 Dmax %” value was “D (D (<50%))” and the DC50 was more than 0.1 µM.
With `CNc1cc(N2CCc3c(CN4CCC(N5CCN(CCc6ccc(Cl)c(C7CCC(=O)NC7=O)c6)CC5)C(F)(F)C4)cccc32)nn2c(C(=O)NC3CC3F)cnc12` (centres unmarked) [I-900], the “TYK2 MSD OCI-LY10 Dmax %” value is listed as “B (B (90 to >75%))” and the DC50 is less than 0.01 µM.
Regarding `CNc1cc(N2CCc3c(-c4ccc(CN5CCC6(CCN(C(=O)c7ccc(Cl)c(N8CCC(=O)NC8=O)c7)CC6)C(F)(F)C5)cn4)cccc32)nn2c(C(=O)N[C@@H]3C[C@@H]3F)cnc12` [I-901], the “TYK2 MSD OCI-LY10 Dmax %” value was “A (A (>90%))” and the DC50 is less than 0.001 µM.
With `CNc1cc(N2CCc3c(-c4ccc(CN5CCC(N6CCN(CCc7ccc(Cl)c(C8CCC(=O)NC8=O)c7)CC6)C(F)(F)C5)cn4)cccc32)nn2c(C(=O)NC3CC3F)cnc12` (centres unmarked) [I-902], the “TYK2 MSD OCI-LY10 Dmax %” value is reported as “B (B (90 to >75%))” and the DC50 is less than 0.01 µM.
For `CNc1cc(N2CCc3c(CN4CCC(N5CC(N6CCN(c7cccc8c(N9CCC(=O)NC9=O)nn(C)c78)CC6)C5)C(F)(F)C4)cccc32)nn2c(C(=O)N[C@@H]3C[C@@H]3F)cnc12` (some centres unmarked) [I-903], the “TYK2 MSD OCI-LY10 Dmax %” value is “B (B (90 to >75%))” and the DC50 was less than 0.01 µM.
As for `CNc1cc(N2CCc3c(CN4CCC(N5CC(N6CCN(c7cccn8c(N9CCC(=O)NC9=O)cnc78)CC6)C5)C(F)(F)C4)cccc32)nn2c(C(=O)N[C@@H]3C[C@@H]3F)cnc12` (some centres unmarked) [I-904], the “TYK2 MSD OCI-LY10 Dmax %” value is listed as “A (A (>90%))” and the DC50 was less than 0.001 µM.
Take `CNc1cc(N2CCc3c(-c4ccc(CN5CCC(N6CCN(c7ccc8c(c7F)n(C)c(=O)n8C7CCC(=O)NC7=O)CC6)C(F)(F)C5)cn4)cccc32)nn2c(C(=O)NC3CC3F)cnc12` (centres unmarked) [I-910]: the “TYK2 MSD OCI-LY10 Dmax %” value is reported as “B (B (90 to >75%))” and the half-maximal degradation concentration (DC50) was less than 0.01 µM.

Usually DC50 stands for the concentration at which degradation of the target reaches its halfway point.
